These results are taken from patent US12433953B2, “Compositions and methods related to tumor activated antibodies targeting EGFR and effector cell antigens” (Janux Therapeutics, Inc., priority 2021, dated 2025).

This data set concerns EGFR Fab binding to the EGFR antigen. The data set can be described thus: ELISA competitive inhibition of EGFR Fab binding to EGFR antigen. The note with it: for IC50: read-out: IC50.
[1] abbreviates: Table 20, peptide-8 alanine scanning mutants.
Where [2] appears, read: Table 21, peptide-8 alanine scanning mutants.

Like-named read-outs stand apart in the source and are kept apart here.

As usually defined, the IC50 is the concentration at which inhibition is half-maximal.

For the molecule `CC[C@H](C)[C@@H]1NC(=O)[C@H](Cc2c[nH]cn2)NC(=O)[C@H](CO)NC(=O)[C@H](CCCNC(=N)N)NC(=O)[C@@H](NC(=O)[C@H](C)N)CSSC[C@@H](C(=O)N[C@H](C(=O)O)C(C)C)NC(=O)[C@H]([C@@H](C)CC)NC(=O)[C@@H]2CCCN2C(=O)[C@H](CCCCN)NC(=O)[C@H](C)NC(=O)[C@H](C(C)C)NC(=O)[C@H](CC(=O)O)NC1=O` [Peptide-17], the “Fold shift in IC50 relative to Peptide-8 (IC50 Ala mutant/IC50 Peptide-8)” value (Table 20) was 4.1. Besides, the IC50 under setting [1] amounted to 16 µM.

On to `CC[C@H](C)[C@@H]1NC(=O)[C@H](Cc2c[nH]cn2)NC(=O)[C@H](CO)NC(=O)[C@H](C)NC(=O)[C@@H](NC(=O)[C@@H]2CCCN2)CSSC[C@@H](C(=O)N[C@H](C(=O)O)C(C)C)NC(=O)[C@H]([C@@H](C)CC)NC(=O)[C@@H]2CCCN2C(=O)[C@H](CCCCN)NC(=O)[C@H](C)NC(=O)[C@H](C(C)C)NC(=O)[C@H](CC(=O)O)NC1=O` [Peptide-18], for which the “Fold shift in IC50 relative to Peptide-8 (IC50 Ala mutant/IC50 Peptide-8)” value (Table 20) turned out to be 1.4. In addition, the IC50 under setting [1] is 5.6 µM.

In the case of `CC[C@H](C)[C@@H]1NC(=O)[C@H](Cc2c[nH]cn2)NC(=O)[C@H](C)NC(=O)[C@H](CCCNC(=N)N)NC(=O)[C@@H](NC(=O)[C@@H]2CCCN2)CSSC[C@@H](C(=O)N[C@H](C(=O)O)C(C)C)NC(=O)[C@H]([C@@H](C)CC)NC(=O)[C@@H]2CCCN2C(=O)[C@H](CCCCN)NC(=O)[C@H](C)NC(=O)[C@H](C(C)C)NC(=O)[C@H](CC(=O)O)NC1=O` [Peptide-19], the “Fold shift in IC50 relative to Peptide-8 (IC50 Ala mutant/IC50 Peptide-8)” value (Table 20) is reported as 24. Further, under setting [1], the IC50 was determined as 93 µM.

Consider `CC[C@H](C)[C@@H]1NC(=O)[C@H](C)NC(=O)[C@H](CO)NC(=O)[C@H](CCCNC(=N)N)NC(=O)[C@@H](NC(=O)[C@@H]2CCCN2)CSSC[C@@H](C(=O)N[C@H](C(=O)O)C(C)C)NC(=O)[C@H]([C@@H](C)CC)NC(=O)[C@@H]2CCCN2C(=O)[C@H](CCCCN)NC(=O)[C@H](C)NC(=O)[C@H](C(C)C)NC(=O)[C@H](CC(=O)O)NC1=O` [Peptide-20], for which the “Fold shift in IC50 relative to Peptide-8 (IC50 Ala mutant/IC50 Peptide-8)” value (Table 20) was found to be 2.8. Moreover, the IC50 under setting [1] is 11 µM.

On to `CC[C@H](C)[C@@H]1NC(=O)[C@@H]2CCCN2C(=O)[C@H](CCCCN)NC(=O)[C@H](C)NC(=O)[C@H](C(C)C)NC(=O)[C@H](CC(=O)O)NC(=O)[C@H](C)NC(=O)[C@H](Cc2c[nH]cn2)NC(=O)[C@H](CO)NC(=O)[C@H](CCCNC(=N)N)NC(=O)[C@@H](NC(=O)[C@@H]2CCCN2)CSSC[C@@H](C(=O)N[C@H](C(=O)O)C(C)C)NC1=O` [Peptide-21], for which the “Fold shift in IC50 relative to Peptide-8 (IC50 Ala mutant/IC50 Peptide-8)” value (Table 20) stood at 0.5. For the same molecule, the IC50 under setting [1] amounted to 1.95 µM.

Regarding `CC[C@H](C)[C@@H]1NC(=O)[C@H](Cc2c[nH]cn2)NC(=O)[C@H](CO)NC(=O)[C@H](CCCNC(=N)N)NC(=O)[C@@H](NC(=O)[C@@H]2CCCN2)CSSC[C@@H](C(=O)N[C@H](C(=O)O)C(C)C)NC(=O)[C@H]([C@@H](C)CC)NC(=O)[C@@H]2CCCN2C(=O)[C@H](CCCCN)NC(=O)[C@H](C)NC(=O)[C@H](C(C)C)NC(=O)[C@H](C)NC1=O` [Peptide-22], under setting [1], the IC50 is > 100 µM.

On to `CC[C@H](C)[C@@H]1NC(=O)[C@H](Cc2c[nH]cn2)NC(=O)[C@H](CO)NC(=O)[C@H](CCCNC(=N)N)NC(=O)[C@@H](NC(=O)[C@@H]2CCCN2)CSSC[C@@H](C(=O)N[C@H](C(=O)O)C(C)C)NC(=O)[C@H]([C@@H](C)CC)NC(=O)[C@@H]2CCCN2C(=O)[C@H](CCCCN)NC(=O)[C@H](C)NC(=O)[C@H](C)NC(=O)[C@H](CC(=O)O)NC1=O` [Peptide-23], for which the “Fold shift in IC50 relative to Peptide-8 (IC50 Ala mutant/IC50 Peptide-8)” value (Table 21) came out at 2.7. The IC50 under setting [2] came out at 3.8 µM.

Consider `CC[C@H](C)[C@@H]1NC(=O)[C@H](Cc2c[nH]cn2)NC(=O)[C@H](CO)NC(=O)[C@H](CCCNC(=N)N)NC(=O)[C@@H](NC(=O)[C@@H]2CCCN2)CSSC[C@@H](C(=O)N[C@H](C(=O)O)C(C)C)NC(=O)[C@H]([C@@H](C)CC)NC(=O)[C@@H]2CCCN2C(=O)[C@H](C)NC(=O)[C@H](C)NC(=O)[C@H](C(C)C)NC(=O)[C@H](CC(=O)O)NC1=O` [Peptide-24], for which, under setting [2], the IC50 was > 100 µM.
